# Laboratory results reported in US11945822B2, “Pyrazolo-triazine and/or pyrazolo-pxrimidine derivatives as selective inhibitor of cyclin dependent kinase” (QURIENT CO., LTD., priority 2018, dated 2024).
# System: H460
# Experiment: Cellular H460 viability assay (CellTiter-Glo, 72 hours)
# Format: cell-based
# Conditions: Homo sapiens, NCI-H460
# Method: (§1) All cell lines were routinely tested for mycoplasma.
# (§2) The effect of the CDK7 inhibitor to inhibit the growth of target cancer cells was evaluated through the 72 hours time period of viability assay. Briefly, the candidate cell line ware plated in 96 well plate at the following density of cells respectively. […] DMSO solvent without compound served as a control and final DMSO concentration less than 0.1%. After 72 hours of incubation at 37° C., 5% CO2 incubator, cells were analyzed for the viability using the CellTiter-Glo Luminescent Cell Viability Assay (Promega, Cat #G7570). All viability assays were performed in duplicate and Luminescence was read using an Envision (Perkin Elmer, USA). Data was analyzed using XLfit software.
row,IC50 [µM],SMILES
1,< 1,CC(C)c1cnn2c(NC(C)c3ccccc3-n3ccc(CO)n3)nc(N3CCC(N)CC3)nc12 (racemic) [Compound 220]
2,< 1,CC(C)c1cnn2c(NCc3ccccc3-c3ccc4ccccc4n3)nc(NCC(O)CCN)nc12 (racemic) [Compound 240]
3,< 1,CC(C)C(=O)N1CCc2nn(-c3ccccc3CNc3nc(N4CCC(N)CC4)nc4c(C(C)C)cnn34)cc2C1 [Compound 148]

# System: MV4-11
# Experiment: Cellular MV4-11 viability assay (CellTiter-Glo, 72 hours)
# Format: cell-based
# Conditions: Homo sapiens
# Method: as §1, §2
row,IC50 [µM],SMILES
1,< 1,CC(C)c1cnn2c(NC(C)c3ccccc3-n3ccc(CO)n3)nc(N3CCC(N)CC3)nc12 (racemic) [Compound 220]
2,< 1,CC(C)c1cnn2c(NCc3ccccc3-c3ccc4ccccc4n3)nc(NCC(O)CCN)nc12 (racemic) [Compound 240]
3,< 1,CC(C)C(=O)N1CCc2nn(-c3ccccc3CNc3nc(N4CCC(N)CC4)nc4c(C(C)C)cnn34)cc2C1 [Compound 148]

# Target: T1, CDK5/p25 (Homo sapiens, UniProt Q00535)
# T1 construct: purchased Invitrogen PR8543B
# Experiment: Enzymatic assay for CDK5 (FRET based LANCE Ultra kinase assay)
# Format: biochemical
# Conditions: read-out: CDK5 enzymatic activity (IC50 range)
# Method: (§3) Enzymatic Binding Assay Protocol for CDK1, CDK2, CDK5 and CDK7
# (§4) Inhibition activity of the respective compound on CDK kinase under Km value of ATP was tested in FRET based The LANCE® Ultra kinase assay (Perkin Elmer), which uses a ULight™-labeled peptide substrate and an appropriate Europium-labeled anti-phospho-antibody. Test compounds were made with DMSO solutions, and then 4-fold serial dilutions for 8 doses were prepared using automated liquid handler (POD810, LABCYTE) and 80 nL/well of diluted compound solutions were added into the 384-well plates (Greiner, Cat #784075). And then 68 nM of ULight-MBP peptide (Perkin Elmer, Cat #TRF0109-M) and 5 ul/well of ATP (Sigma, Cat #A7699) were added to the plate. After 1 min centrifugation at 1000 rpm, Purified CDKs/Cyclin complex were added following concentrations respectively. 24 uM for CDK1/Cyclin B (Invitrogen, Cat #PR4768C), 22 uM for CDK2/Cyclin A (Invitrogen, Cat #PV6290), 10 uM for CDK5/p25 (Invitrogen, Cat #PR8543B) and […] for CDK7/Cyclin H/MNAT1 (Invitrogen, Cat #PR6749B) were added to the each corresponding plate for CDK1, CDK2, CDK5 and CDK7. Incubate at 23° C. for 60 min and then Eu-labeled anti-phospho-Myelin Basic Protein (PE, Cat #TRF0201-M) and EDTA (Invitrogen, Cat #15575038) mixture in Lance Detection Buffer (Perkin Elmer, Cat #CR97100) was added in each well. After additional incubation at 23° C. for 60 min, test articles were measured the fluorescence using Envision leader (Perkin Elmer, USA) [Laser as excitation light; […] as the first and the second emission filter]. Data was analyzed using XL Fit software.
# T1 sequence (Q00535 whole entry): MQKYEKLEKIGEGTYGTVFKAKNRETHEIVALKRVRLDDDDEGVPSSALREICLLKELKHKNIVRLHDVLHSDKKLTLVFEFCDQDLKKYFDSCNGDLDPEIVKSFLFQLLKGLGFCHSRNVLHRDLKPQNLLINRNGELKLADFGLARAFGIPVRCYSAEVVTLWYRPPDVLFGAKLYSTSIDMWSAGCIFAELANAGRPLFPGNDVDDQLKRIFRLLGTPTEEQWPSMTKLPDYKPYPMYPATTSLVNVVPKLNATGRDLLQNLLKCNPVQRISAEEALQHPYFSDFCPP
# T1 sequence (Q15078 99-307 partner limits assumed): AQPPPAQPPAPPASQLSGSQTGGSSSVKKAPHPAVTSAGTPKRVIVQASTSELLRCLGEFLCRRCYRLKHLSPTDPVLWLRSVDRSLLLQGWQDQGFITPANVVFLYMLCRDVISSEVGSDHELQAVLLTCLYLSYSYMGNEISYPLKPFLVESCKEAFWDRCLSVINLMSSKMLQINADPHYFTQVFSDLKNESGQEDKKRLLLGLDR
row,IC50 [µM],SMILES
1,> 1,CC(C)c1cnn2c(NC(C)c3ccccc3-n3ccc(CO)n3)nc(N3CCC(N)CC3)nc12 (racemic) [Compound 220]
2,> 1,CC(C)c1cnn2c(NCc3ccccc3-c3ccc4ccccc4n3)nc(NCC(O)CCN)nc12 (racemic) [Compound 240]
3,< 0.1,CC(C)C(=O)N1CCc2nn(-c3ccccc3CNc3nc(N4CCC(N)CC4)nc4c(C(C)C)cnn34)cc2C1 [Compound 148]

# Target: T2, CDK1/Cyclin B (Homo sapiens, UniProt P06493)
# T2 construct: purchased Invitrogen PR4768C
# Experiment: Enzymatic assay for CDK1 (FRET based LANCE Ultra kinase assay)
# Format: biochemical
# Conditions: read-out: CDK1 enzymatic activity (IC50 range)
# Method: as §3, §4
# T2 sequence (P06493 whole entry): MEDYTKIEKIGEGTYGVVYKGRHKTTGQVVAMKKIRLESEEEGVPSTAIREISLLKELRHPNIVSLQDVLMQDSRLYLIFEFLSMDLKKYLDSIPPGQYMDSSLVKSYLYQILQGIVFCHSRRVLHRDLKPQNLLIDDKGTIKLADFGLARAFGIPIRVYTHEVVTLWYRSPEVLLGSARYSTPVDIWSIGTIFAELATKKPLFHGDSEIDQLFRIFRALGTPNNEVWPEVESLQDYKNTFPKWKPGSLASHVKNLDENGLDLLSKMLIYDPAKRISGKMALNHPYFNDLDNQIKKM
# T2 sequence (P14635 whole entry partner): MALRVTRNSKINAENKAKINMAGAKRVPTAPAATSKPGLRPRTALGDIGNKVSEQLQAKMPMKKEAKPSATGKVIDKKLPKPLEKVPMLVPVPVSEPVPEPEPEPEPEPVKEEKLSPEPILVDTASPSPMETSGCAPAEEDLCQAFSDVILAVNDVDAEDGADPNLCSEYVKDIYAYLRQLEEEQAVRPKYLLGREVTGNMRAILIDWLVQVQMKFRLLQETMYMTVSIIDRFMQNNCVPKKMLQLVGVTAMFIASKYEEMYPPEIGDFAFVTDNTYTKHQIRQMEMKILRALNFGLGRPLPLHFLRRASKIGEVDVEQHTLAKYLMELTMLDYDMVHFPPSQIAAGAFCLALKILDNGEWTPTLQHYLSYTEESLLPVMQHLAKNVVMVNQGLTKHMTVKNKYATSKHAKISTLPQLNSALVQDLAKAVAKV
row,IC50 [µM],SMILES
1,> 1,CC(C)c1cnn2c(NC(C)c3ccccc3-n3ccc(CO)n3)nc(N3CCC(N)CC3)nc12 (racemic) [Compound 220]
2,> 1,CC(C)c1cnn2c(NCc3ccccc3-c3ccc4ccccc4n3)nc(NCC(O)CCN)nc12 (racemic) [Compound 240]
3,> 1,CC(C)C(=O)N1CCc2nn(-c3ccccc3CNc3nc(N4CCC(N)CC4)nc4c(C(C)C)cnn34)cc2C1 [Compound 148]

# System: HCT116
# Experiment: Cellular HCT116 viability assay (CellTiter-Glo, 72 hours)
# Format: cell-based
# Conditions: Homo sapiens, HCT-116
# Method: as §1, §2
row,IC50 [µM],SMILES
1,< 1,CC(C)c1cnn2c(NC(C)c3ccccc3-n3ccc(CO)n3)nc(N3CCC(N)CC3)nc12 (racemic) [Compound 220]
2,< 1,CC(C)c1cnn2c(NCc3ccccc3-c3ccc4ccccc4n3)nc(NCC(O)CCN)nc12 (racemic) [Compound 240]
3,< 1,CC(C)C(=O)N1CCc2nn(-c3ccccc3CNc3nc(N4CCC(N)CC4)nc4c(C(C)C)cnn34)cc2C1 [Compound 148]

# Target: T3, CDK2/Cyclin A (Homo sapiens, UniProt P24941)
# T3 construct: purchased Invitrogen PV6290
# Experiment: Enzymatic assay for CDK2 (FRET based LANCE Ultra kinase assay)
# Format: biochemical
# Conditions: read-out: CDK2 enzymatic activity (IC50 range)
# Method: as §3, §4
row,IC50 [µM],SMILES
1,> 1,CC(C)c1cnn2c(NC(C)c3ccccc3-n3ccc(CO)n3)nc(N3CCC(N)CC3)nc12 (racemic) [Compound 220]
2,> 1,CC(C)c1cnn2c(NCc3ccccc3-c3ccc4ccccc4n3)nc(NCC(O)CCN)nc12 (racemic) [Compound 240]
3,0.1 to 1,CC(C)C(=O)N1CCc2nn(-c3ccccc3CNc3nc(N4CCC(N)CC4)nc4c(C(C)C)cnn34)cc2C1 [Compound 148]

# Target: T4, CDK7/Cyclin H/MNAT1 (Homo sapiens, UniProt P50613)
# T4 construct: purchased Invitrogen PR6749B
# Experiment: Enzymatic assay for CDK7 (FRET based LANCE Ultra kinase assay)
# Format: biochemical
# Conditions: CDK7 over CDK1
# Method: as §3
# Inhibition activity of the respective compound on CDK kinase under Km value of ATP was tested in FRET based The LANCE® Ultra kinase assay (Perkin Elmer), which uses a ULight™-labeled peptide substrate and an appropriate Europium-labeled anti-phospho-antibody. […] After 1 min centrifugation at 1000 rpm, Purified CDKs/Cyclin complex were added following concentrations respectively. […] Data was analyzed using XL Fit software.
# T4 sequence (P50613 whole entry): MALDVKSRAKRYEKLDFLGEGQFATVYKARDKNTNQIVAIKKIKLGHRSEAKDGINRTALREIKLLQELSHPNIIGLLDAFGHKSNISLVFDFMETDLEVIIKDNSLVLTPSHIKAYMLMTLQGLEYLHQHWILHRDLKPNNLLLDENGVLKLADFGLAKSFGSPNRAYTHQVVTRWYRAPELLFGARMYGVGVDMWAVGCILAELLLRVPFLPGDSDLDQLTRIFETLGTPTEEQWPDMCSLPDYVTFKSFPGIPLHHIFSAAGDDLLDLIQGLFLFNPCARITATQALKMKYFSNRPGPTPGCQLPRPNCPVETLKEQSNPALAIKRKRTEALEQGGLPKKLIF
# T4 sequence (P51946 whole entry partner): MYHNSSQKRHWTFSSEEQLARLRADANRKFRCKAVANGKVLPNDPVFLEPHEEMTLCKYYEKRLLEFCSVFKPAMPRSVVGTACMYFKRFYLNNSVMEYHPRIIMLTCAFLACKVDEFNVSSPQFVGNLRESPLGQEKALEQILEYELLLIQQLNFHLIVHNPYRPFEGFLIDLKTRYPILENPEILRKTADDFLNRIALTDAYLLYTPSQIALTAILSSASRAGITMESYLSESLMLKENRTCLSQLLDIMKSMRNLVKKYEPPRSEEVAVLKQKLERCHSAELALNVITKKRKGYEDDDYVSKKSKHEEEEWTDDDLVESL
# T4 sequence (P51948 whole entry partner): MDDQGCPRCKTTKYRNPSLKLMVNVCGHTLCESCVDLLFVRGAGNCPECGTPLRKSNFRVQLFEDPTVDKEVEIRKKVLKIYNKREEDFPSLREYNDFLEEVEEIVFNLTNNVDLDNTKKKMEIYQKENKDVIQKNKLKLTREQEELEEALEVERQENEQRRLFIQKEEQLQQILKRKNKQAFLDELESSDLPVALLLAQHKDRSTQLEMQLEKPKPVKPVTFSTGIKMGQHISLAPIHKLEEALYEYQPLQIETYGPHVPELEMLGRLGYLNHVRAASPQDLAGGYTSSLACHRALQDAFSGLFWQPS
row,CDK1/CDK7: Selectivity of CDK7 inhibition over CDK1 inhibition,SMILES
1,A (A=greater than 200 fold),CC(C)c1cnn2c(NC(C)c3ccccc3-n3ccc(CO)n3)nc(N3CCC(N)CC3)nc12 (racemic) [Compound 220]
2,A (A=greater than 200 fold),CC(C)c1cnn2c(NCc3ccccc3-c3ccc4ccccc4n3)nc(NCC(O)CCN)nc12 (racemic) [Compound 240]
3,A (A=greater than 200 fold),CC(C)C(=O)N1CCc2nn(-c3ccccc3CNc3nc(N4CCC(N)CC4)nc4c(C(C)C)cnn34)cc2C1 [Compound 148]

# Same assay, conditions: CDK7 over CDK2
row,CDK2/CDK7: Selectivity of CDK7 inhibition over CDK2 inhibition,SMILES
1,A (A=greater than 200 fold),CC(C)c1cnn2c(NC(C)c3ccccc3-n3ccc(CO)n3)nc(N3CCC(N)CC3)nc12 (racemic) [Compound 220]
2,A (A=greater than 200 fold),CC(C)c1cnn2c(NCc3ccccc3-c3ccc4ccccc4n3)nc(NCC(O)CCN)nc12 (racemic) [Compound 240]
3,A (A=greater than 200 fold),CC(C)C(=O)N1CCc2nn(-c3ccccc3CNc3nc(N4CCC(N)CC4)nc4c(C(C)C)cnn34)cc2C1 [Compound 148]

# Same assay, conditions: CDK7 over CDK5
row,CDK5/CDK7: Selectivity of CDK7 inhibition over CDK5 inhibition,SMILES
1,A (A=greater than 200 fold),CC(C)c1cnn2c(NC(C)c3ccccc3-n3ccc(CO)n3)nc(N3CCC(N)CC3)nc12 (racemic) [Compound 220]
2,A (A=greater than 200 fold),CC(C)c1cnn2c(NCc3ccccc3-c3ccc4ccccc4n3)nc(NCC(O)CCN)nc12 (racemic) [Compound 240]

row,SMILES,CDK5/CDK7: Selectivity of CDK7 inhibition over CDK5 inhibition
1,CC(C)C(=O)N1CCc2nn(-c3ccccc3CNc3nc(N4CCC(N)CC4)nc4c(C(C)C)cnn34)cc2C1 [Compound 148],"B (B=less than 200 fold, but greater than 20 fold)"

# Same assay, conditions: read-out: CDK7 enzymatic activity (IC50 range)
row,IC50 [µM],SMILES
1,< 0.1,CC(C)c1cnn2c(NC(C)c3ccccc3-n3ccc(CO)n3)nc(N3CCC(N)CC3)nc12 (racemic) [Compound 220]
2,< 0.1,CC(C)c1cnn2c(NCc3ccccc3-c3ccc4ccccc4n3)nc(NCC(O)CCN)nc12 (racemic) [Compound 240]
3,< 0.1,CC(C)C(=O)N1CCc2nn(-c3ccccc3CNc3nc(N4CCC(N)CC4)nc4c(C(C)C)cnn34)cc2C1 [Compound 148]
